What was measured:
[1] = molecular target: T1, Poly [ADP-ribose] polymerase tankyrase-1 (Homo sapiens, UniProt O95271); assay: Inhibition of human TNKS1 incubated for 30 mins prior to substrate addition measured after 2 hrs by HTRF method
T1 sequence (O95271 whole entry): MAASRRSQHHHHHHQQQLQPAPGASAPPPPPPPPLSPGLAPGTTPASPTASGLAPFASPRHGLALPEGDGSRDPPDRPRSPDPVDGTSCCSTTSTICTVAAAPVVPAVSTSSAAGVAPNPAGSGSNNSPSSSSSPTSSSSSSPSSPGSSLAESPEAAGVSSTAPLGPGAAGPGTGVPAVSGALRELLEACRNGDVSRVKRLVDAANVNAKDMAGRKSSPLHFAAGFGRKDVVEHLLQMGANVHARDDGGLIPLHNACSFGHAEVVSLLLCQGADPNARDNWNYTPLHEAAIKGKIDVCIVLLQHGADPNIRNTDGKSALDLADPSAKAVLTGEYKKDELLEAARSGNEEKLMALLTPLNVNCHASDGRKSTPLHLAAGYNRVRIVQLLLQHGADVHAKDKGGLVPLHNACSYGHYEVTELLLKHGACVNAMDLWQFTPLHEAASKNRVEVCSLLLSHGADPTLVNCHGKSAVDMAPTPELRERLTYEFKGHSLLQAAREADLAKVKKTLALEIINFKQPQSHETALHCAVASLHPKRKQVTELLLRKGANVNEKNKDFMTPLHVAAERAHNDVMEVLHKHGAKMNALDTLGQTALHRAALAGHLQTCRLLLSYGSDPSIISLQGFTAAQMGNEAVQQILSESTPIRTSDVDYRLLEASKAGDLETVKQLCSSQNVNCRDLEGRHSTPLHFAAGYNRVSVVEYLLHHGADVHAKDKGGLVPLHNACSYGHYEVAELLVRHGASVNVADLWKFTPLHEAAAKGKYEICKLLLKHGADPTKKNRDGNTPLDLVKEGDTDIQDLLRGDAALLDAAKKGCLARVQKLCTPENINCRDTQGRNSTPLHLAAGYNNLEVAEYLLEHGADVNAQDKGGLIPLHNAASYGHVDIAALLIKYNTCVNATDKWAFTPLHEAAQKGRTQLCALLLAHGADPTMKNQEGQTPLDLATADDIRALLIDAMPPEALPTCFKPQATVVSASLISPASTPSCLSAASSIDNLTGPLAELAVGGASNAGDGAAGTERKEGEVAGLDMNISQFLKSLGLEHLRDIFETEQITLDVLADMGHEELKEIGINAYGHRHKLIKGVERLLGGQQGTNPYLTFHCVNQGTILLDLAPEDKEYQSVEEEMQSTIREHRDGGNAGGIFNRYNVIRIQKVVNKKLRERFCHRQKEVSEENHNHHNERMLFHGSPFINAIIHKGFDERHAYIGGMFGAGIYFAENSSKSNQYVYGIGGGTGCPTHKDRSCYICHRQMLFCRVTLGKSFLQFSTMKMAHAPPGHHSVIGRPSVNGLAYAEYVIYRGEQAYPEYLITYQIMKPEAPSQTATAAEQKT

[2] = molecular target: T1, Poly [ADP-ribose] polymerase tankyrase-1; assay: Inhibition of human TNKS1 after 1 to 2 hrs by fluorescence polarization method

SMILES | IC50 [1] [nM] | IC50 [2] [nM]
N#Cc1c(Cn2c(=O)n(C[C@H]3CC[C@H](C(=O)O)CC3)c(=O)c3ccccc32)cccc1C(F)(F)F | 31.6 | 7.94
Cc1c(F)ccc2c1c(=O)n(C[C@H]1CC[C@H](C(=O)O)CC1)c(=O)n2Cc1cccc(C(F)(F)F)c1C#N | 50.1 | 6.31
Cc1cccc2c1c(=O)n(C[C@H]1CC[C@@H](C(=O)O)CC1)c(=O)n2Cc1cccc(C(F)(F)F)c1C#N | 316 | 
